How the values were obtained:
six susceptible strains = test: Checkerboard assay, six susceptible strains (summary); type: cell-based; settings: with β,β-Dim
Procedure: (§1) The FICI of β,β-Dim–colistin combination was determined by a checkerboard assay. Briefly, two-fold serial dilutions of β,β-Dim and colistin were prepared in a 96-well plate. After incubation at 37 °C for 18 h with bacterial suspension (10^6 CFU/mL), OD600 values were measured. FICI = (MICβ,β-Dim in combination/MICβ,β-Dim) + (MICcolistin in combination/MICcolistin). The synergistic effect of β,β-Dim with other antibiotics was measured in the same way. Synergy was considered to be an FICI ≤ 0.5.

[1] = tested on: K. pneumoniae (including mcr-1, mcr-8, mcr-9, pmrA/B, phoP, and mgrB); test: Checkerboard assay, colistin-resistant K. pneumoniae (summary); type: cell-based; settings: with β,β-Dim
Procedure: as §1

[2] = tested on: E. coli (including mcr-1, mcr-3, and pmrA/B); test: Checkerboard assay, colistin-resistant E. coli (summary); type: cell-based; settings: with β,β-Dim
Procedure: as §1

[3] = tested on: E. coli BW25113, E. coli BW25113-mcr-1, E. coli BW25113-pmrBR93P; test: Intracellular colistin content (HPLC-MS/MS); type: cell-based; settings: colistin 0.5 × MIC with β,β-Dim at the highest tested concentration; 30 min
Procedure: Overnight cultures E. coli BW25113, E. coli BW25113-mcr-1, and E. coli 1 BW25113-pmrBR93P were diluted to 10^8 CFU/mL and then co-incubated with colistin (0.5 × MIC) in the presence of β,β-Dim (0–4 μg/mL) for 30 min at 37 °C. The cultures were centrifuged and resuspended in 30% methanol. Bacteria were disrupted by sonication and centrifugation, supernatants were diluted in 20% acetonitrile, and intracellular colistin was quantified via HPLC-MS/MS (TQ-XS, Waters, Milford, MA, USA). Analyses were performed on a CORTECS Shield RP C18 column (Waters, Milford, MA, USA) at 40 °C, with a flow rate of 0.4 mL/min and an injection volume of 5 μL. The mobile phases consisted of solvent A (0.5% formic acid and acetonitrile in water) and solvent B (0.5% formic acid in water). Colistin was detected in positive ESI mode with ion transitions […] and m/z 386.0 > 101.0. […] Mobile phases included solvent A (acetonitrile) and solvent B (water). β,β-Dim was detected in the negative electrospray ionization (ESI) mode with ion transitions m/z 369.1 > 269.0 and m/z 369.1 > 241.0.

K. pneumoniae 667 = test: Murine systemic (abdominal) infection model; type: in vivo; settings: mice
Procedure: Mice were randomly assigned to five groups (n = 10) and infected intraperitoneally with K. pneumoniae 667 (8 × 10^6 CFUs). One hour post-infection, treatments were administered intraperitoneally: PBS, β,β-Dim (2 mg/kg), colistin (0.2 mg/kg), or β,β-Dim combined with colistin (2 + 0.2 mg/kg). Survival was continuously monitored. Upon death, the heart, liver, spleen, lungs, and kidney were immediately collected. At five days post-infection, surviving mice were euthanized, and the same organs were harvested. Half of each organ was weighed, homogenized, diluted, and plated on LA plates for bacterial colony enumeration. The remaining tissue samples were used for histopathological analysis.

S. aureus ATCC 29213 [4] = test: Membrane permeability (PI); type: cell-based; settings: β,β-Dim 0–32 µg/mL, 1 h
Procedure: (§2) The S. aureus ATCC 29213 bacterial suspension (OD600 = 0.5) was incubated with fluorescent probe propidium iodide (PI, Cat No. C1008S, Beyotime, Shanghai, China, final concentration 10 µM) for 30 min. Then, β,β-Dim (0–32 µg/mL) was added to the PI-labeled suspension in a black 96-well plate and incubated for 1 h. Fluorescence intensity was measured at an excitation/emission wavelength of 535/615 nm. The cytoplasmic membrane permeability of E. coli BW25113, E. coli BW25113-mcr-1, and E. coli BW25113-pmrBR93P induced by β,β-Dim was assessed by preparing spheroplasts.

E. coli spheroplasts = test: Membrane permeability of spheroplasts (PI); type: cell-based
Procedure: The cytoplasmic membrane LPS concentrations of E. coli BW25113, E. coli BW25113-mcr-1, and E. coli BW25113-pmrBR93P were quantified using a Chromogenic LAL Endotoxin Assay Kit (Cat No, C0273S, Beyotime, Shanghai, China). Firstly, spheroplasts were prepared according to a previously described method to remove the outer membrane. Briefly, bacterial cells were washed with Tris buffer and resuspended in Tris buffer containing 20% sucrose. EDTA (250 μL, 10 mg/mL) and lysozyme (1 mL, 10 mg/mL) were added, followed by incubation at 30 °C for 1 h with shaking at 80 rpm. Trypsin (500 μL, 10 mg/mL) was added and incubated for an additional 15 min. […] Then, the released LPS was quantified by reacting with LPS detection reagents, and absorbance was measured at 405 nm.
as §2, with “Then, β,β-Dim (0–32 µg/mL) was added to the PI-labeled suspension in a black 96-well plate and incubated for 1 h.” left out

S. aureus ATCC 29213 [5] = test: Membrane potential, proton gradient and PMF; type: cell-based
S. aureus ATCC 29213 [6] = test: Effect of membrane components on antibacterial activity; type: cell-based
Procedure: The effects of membrane components on the antibacterial activity of β,β-Dim were evaluated using the checkerboard method by exogenous addition of phosphatidylethanolamine (PE), phosphatidylglycerol (PG), and cardiolipin (CL). The same procedure was followed with pre-addition of the respective components to CAMHB to explore their impact on the β,β-Dim–colistin combination in E. coli.

[7] = acute oral, mice; cited from earlier work
[8] = rats; cited from earlier work
[9] = cited from earlier work

| Compound | reduction of colistin MIC (six susceptible strains) | enhancement of colistin activity (MIC reduction) [1] | improvement of colistin efficacy (MIC reduction) [2] | intracellular colistin levels [3] | survival rate (K. pneumoniae 667; day 5 post-infection, single i.p. β,β-Dim 2 mg/kg, colistin 0.2 mg/kg) | histopathological analysis (tissue damage) (K. pneumoniae 667; heart, liver, spleen, lung, kidney) | membrane permeability (PI fluorescence intensity) (S. aureus ATCC 29213 [4]) | membrane permeability (E. coli spheroplasts) | membrane potential, proton gradient, PMF (S. aureus ATCC 29213 [5]) | antibacterial activity with exogenous PE, PG, and CL (S. aureus ATCC 29213 [6]) | increase of MIC by CL (S. aureus ATCC 29213 [6]; CL 40 μM) | median lethal dose (LD50) [7] | maximum tolerable dose [8] | no-observed-adverse-effect level (NOAEL) [8] | lipophilicity [9] |
| --- | --- | --- | --- | --- | --- | --- | --- | --- | --- | --- | --- | --- | --- | --- | --- |
| colistin | 4–64 fold | 8–1024 fold | 4–32 fold | exceeding 0.6 µg per 10^8 CFUs | 20% | partially alleviated these lesions | – | – | – | – | – | – | – | – | – |
| CC(C)=CC[C@H](OC(=O)C=C(C)C)C1=CC(=O)c2c(O)ccc(O)c2C1=O [β,β-Dim, β,β-dimethylacrylalkannin] | – | – | – | – | – | – | increased membrane permeability in a concentration-dependent manner | markedly increased membrane permeability | increased membrane potential in S. aureus ATCC 29213, reduced the proton gradient, and dissipated the PMF | attenuated the antibacterial activity | 4 fold | exceeds 10 g/kg | exceeds 10 g/kg | 10 mg/kg | high lipophilicity |

From publication PMC12837263, “β,β-Dimethylacrylalkannin Restores Colistin Efficacy Against mcr- and TCS-Mediated Resistant Gram-Negative Bacteria via Membrane Disturbance” (Antibiotics, 2025)
